One assay addresses T1, HDAC-1 (Homo sapiens, UniProt Q13547).
T1 construct: made in house
The assay is described as follows: Deacetylase fluorescence assay (HDAC-1). The conditions noted are these: read-out: HDAC-1 IC50. Format: biochemical. How it is done:
Conventional methods are used to express deacetylase enzymes and purify them from lysed cells. The following example describes an exemplary procedure, however equivalent procedures are within the scope of the invention.
The cell line used is a derivative of 293 cells overexpressing a fusion of the gene encoding each deacetylase protein with a nucleotide sequence encoding the Flag marker.
Cells are grown in Optimem, 2% Fetal Calf Serum, Pen/Strep. For enzyme preparation, Lysis buffer (IPLS) is 50 mM Tris-HCl, pH 7.5, 120 mM NaCl, 0.5 mM EDTA and 0.5% Nonidet P-40, to which is added one tablet of Protease inhibitors (Roche 11836170001) per 10 ml buffer. Other buffers are IPHS, which is IPLS containing 1 M NaCl; TBS (Sigma #T5912) dilute 10× stock to 1× with dH2O; HD buffer: 10 mM Tris pH 8.0 (1M Stock) 10 mM NaCl (5M Stock), 10% glycerol, and for dialysis: 400 μM PMSF is added (for 2 L: use 8 ml 100 mM Stock). Protease inhibitors (Complete mini, Boehringer Mannheim), 1 tablet/10 mL are added to all buffers but not used in buffers for enzyme assays.
Cells are harvested without using trypsin, and most cells are obtained easily in PBS, with gentle striking or agitation of flasks if necessary. More adherent cells are scraped in PBS. Cells are grown in 500 cm^2 trays, from which about half of the media is aspirated (50 ml total), then cells are scraped in the rest of the media and transferred to a centrifuge tube. Trays are washed with 25 ml cold PBS, scraped again to collect additional cells, and centrifuged at 1500 rpm at 4° C. for 5 min. Cells are washed at least 3 times in PBS to remove growth media, pelleting cells after each wash by centrifugation at 1500 rpm for 5 minutes. After washing, PBS is removed and the resulting cell pellet frozen at −80° C. for storage prior to purification.
For purification, cells are resuspended in lysis buffer, 12 ml of IPLS for cells collected from 10 500 cm trays. Cells are lysed at 4° C. for 3 hrs with rocking, and debris is removed by centrifugation for 20 min at 17,000 rpm in 30 ml centrifuge tubes. If supernatant is not clear afterward, centrifugation of the supernatant is repeated. Protein concentration of the whole cell lysate is determined (generally in the range of about 2-5 mg/ml).
For immunoprecipitation per mg of protein, 15 μL of anti-Flag M2-Agarose Affinity beads (Sigma #A2220) is used. Beads are prepared by washing 3 times with 10× bead volume of PBS and 1 time with IPLS, with centrifugation of the washes at 1500 rpm for 5 min. Whole cell lysate is incubated with the Ab-beads overnight at 4° C. Then beads are centrifuged and washed in 5× volume of the following buffers: three times in IPLS (30 sec at 4° C., spin at 1500 RPM for 5 min); three times in IPHS; and three times in TBS buffer. After each centrifugation, the supernatant is aspirated, leaving the pellet as dry as possible but avoiding sucking up any of the beads.
To elute the enzyme, beads are resuspended in 5× bead volume of TBS with protease inhibitor (Roche 11836170001) 1 tablet/10 mL. Enzyme is eluted with 400 μg/mL Flag peptide (Sigma #F-3290) for 3 hrs at 4° C. on rotator. Then beads are centrifuged, and the supernatant is transferred to a new tube to which is added 1/10 volume of glycerol. The supernatant is transferred to a dialysis cassette (Pierce #66410) using a 3 cc syringe and 18 G needle, and is dialyze sup in 2 L HD buffer for 2 hrs at 4° C. (1 L/hour). The resulting purified deacetylase is divided into aliquots (300 μL/tube), is snap frozen in dry ice bath, and is stored at −80° C.
For assay of deacetylase an assay based on Deacetylase Fluorescent Activity Assay/Drug Discovery Kit (BioMol # AK500) is used, however any equivalent deacetylase assay is within the scope of the invention.
The Fluorescent Assay Buffer (FAB) contains: 25 mM Tris-HCl, pH 8.0, 137 mM NaCl, 2.7 mM KCl and 1 mM MgCl2. […]

In assay [1] the test system is p21 promoter (p21-luc) in H1299 cells. The experiment in a line: p21 promoter luciferase assay using stably transfected p21-luc in H1299 cells. Format: cell-based. The conditions noted are these: Homo sapiens, NCI-H1299. How it is done:
The cell lines used are derived from H1299 (p21-luc). The growth media used is RPMI 1640, 10% FBS, 1% Pen/Strep and the selection media added is 500 μg/mL Geneticin (Gibco). The buffer used is 5× cell culture lysis buffer (Promega #E1531), stored at −20 C and the Luciferase assay reagent (Promega #E1483) is stored at −70° C. The results of the assay are analyzed using Wallac Software.
To assay Luciferase, the cell culture medium is removed after one day of growth and the flasks are washed once with PBS. The cells are trypsinized in 20 mL of media and the trypsin is neutralized. The cells are counted (0.5-1 mL) on a Vi-Cell XR cell viability analyzer.
Cells are then diluted to a concentration of approximately 5000 cells/200 μL, and 190 μL samples are aliquoted into each well of a Costar white 96-well TC treated white bottom plate with lid (Costar #3917). Plates are then incubated overnight at 37 C.
After a further day, a sample of the compound is added to the wells for assay.
After a further day, the cells are lysed and the luciferase activity of the lysed cells is measured. Each well is washed twice with PBS and 20 μL/well of 1× cell culture lysis buffer (dilute 5× to 1× in distilled water) is added to each well. The microtiter plates are then shaken on a microtiter plate shaker for 20 minutes at room temperate at a speed setting of 5-6. After removal from the shaker, 100 μL of Luciferase Reagent is added to each well. Each microtiter plate is then read on Wallac Envision instrument.

Bounds are passed on as bounds.

T1 sequence (Q13547 whole entry): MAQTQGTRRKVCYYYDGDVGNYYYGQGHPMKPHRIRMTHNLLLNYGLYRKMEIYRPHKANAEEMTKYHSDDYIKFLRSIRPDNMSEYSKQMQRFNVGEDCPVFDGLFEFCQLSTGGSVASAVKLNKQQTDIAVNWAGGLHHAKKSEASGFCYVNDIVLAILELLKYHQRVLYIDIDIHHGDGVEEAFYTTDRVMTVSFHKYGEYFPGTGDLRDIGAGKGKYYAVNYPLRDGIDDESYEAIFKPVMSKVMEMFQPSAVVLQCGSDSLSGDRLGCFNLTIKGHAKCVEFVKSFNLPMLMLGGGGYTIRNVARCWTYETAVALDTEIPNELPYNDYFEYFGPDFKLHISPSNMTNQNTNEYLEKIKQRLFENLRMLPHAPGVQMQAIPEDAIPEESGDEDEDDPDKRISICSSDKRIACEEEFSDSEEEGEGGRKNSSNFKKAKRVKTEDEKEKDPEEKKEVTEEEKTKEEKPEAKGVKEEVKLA

Take `O=C(/C=C/c1ccc2c(c1)CN(CCC1CCCCC1)CC2)NO` [Example 45, (E)-3-[2-(2-Cyclohexyl-ethyl)-1,2,3,4-tetrahydro-isoquinolin-7-yl]-N-hydroxy-acrylamide]: the IC50 on HDAC-1 was 100 to 1000 nM. Further, in assay [1], the AC50 was over 1000 nM.

For the compound `Cn1cc(CCN2CCc3ccc(/C=C/C(=O)NO)cc3C2)c(-c2ccccc2)n1` [Example 46, (E)-N-Hydroxy-3-{2-[2-(1-methyl-3-phenyl-1H-pyrazol-4-yl)-ethyl]-1,2,3,4-tetrahydro-isoquinolin-7-yl}-acrylamide], at HDAC-1, the half-maximal inhibitory concentration (IC50) is 100 to 1000 nM. Also, the AC50 in assay [1] is over 1000 nM.

For `O=C(/C=C/c1ccc2c(c1)CN(CCc1c[nH]nc1-c1ccccc1)CC2)NO` [Example 47, (E)-N-Hydroxy-3-{2-[2-(3-phenyl-1H-pyrazol-4-yl)-ethyl]-1,2,3,4-tetrahydro-isoquinolin-7-yl}-acrylamide], on HDAC-1, the IC50 fell in the range of 100 to 1000 nM. The AC50 in assay [1] is over 1000 nM.

Turning to `O=C(/C=C/c1ccc2c(c1)CN(CCc1ccnn1-c1ccccc1)CC2)NO` [Example 48, (E)-N-Hydroxy-3-{2-[2-(2-phenyl-2H-pyrazol-3-yl)-ethyl]-1,2,3,4-tetrahydro-isoquinolin-7-yl}-acrylamide], at HDAC-1, the concentration for half-maximal inhibition (IC50) is 100 to 1000 nM. Besides, the AC50 in assay [1] is over 1000 nM.

In the case of `Cc1c(CCN2CCc3ccc(/C=C/C(=O)NO)cc3C2)cnn1-c1ccccc1` [Example 49, (E)-N-Hydroxy-3-{2-[2-(5-methyl-1-phenyl-1H-pyrazol-4-yl)-ethyl]-1,2,3,4-tetrahydro-isoquinolin-7-yl}-acrylamide], on HDAC-1, the IC50 lay in the range of 100 to 1000 nM. This compound also came in with an AC50 in assay [1] of over 1000 nM.

Consider `Cc1nn(C)c(C)c1CCN1CCc2ccc(/C=C/C(=O)NO)cc2C1` [Example 50, (E)-N-Hydroxy-3-{2-[2-(1,3,5-trimethyl-1H-pyrazol-4-yl)-ethyl]-1,2,3,4-tetrahydro-isoquinolin-7-yl}-acrylamide], for which, on HDAC-1, the half-inhibitory concentration (IC50) lay within 100 to 1000 nM. The AC50 in assay [1] is over 1000 nM.

Turning to `O=C(/C=C/c1ccc2c(c1)CN(Cc1ccccc1)CC2)NO` [Example 51, (E)-3-(2-Benzyl-1,2,3,4-tetrahydro-isoquinolin-7-yl)-N-hydroxy-acrylamide], the IC50 on HDAC-1 is 100 to 1000 nM. In addition, the half-maximal activity concentration (AC50) in assay [1] is over 1000 nM.

With `Cc1nn(C)c(C)c1CN1CCc2ccc(/C=C/C(=O)NO)cc2C1` [Example 52, (E)-N-Hydroxy-3-[2-(1,3,5-trimethyl-1H-pyrazol-4-ylmethyl)-1,2,3,4-tetrahydro-isoquinolin-7-yl]-acrylamide], the 50% inhibitory concentration (IC50) on HDAC-1 lay in the range of 100 to 1000 nM. Further, the AC50 in assay [1] was over 1000 nM.

Turning to `CN(C)c1ccc(C(=O)N2CCc3ccc(/C=C/C(=O)NO)cc3C2)cc1` [Example 53, (E)-3-[2-(4-Dimethylamino-benzoyl)-1,2,3,4-tetrahydro-isoquinolin-7-yl]-N-hydroxy-acrylamide], the IC50 on HDAC-1 was under 100 nM. In assay [1], this compound had an AC50 of over 1000 nM.

Consider `O=C(/C=C/c1ccc2c(c1)CN(S(=O)(=O)c1ccccc1)CC2)NO` [Example 54, (E)-3-(2-Benzenesulfonyl-1,2,3,4-tetrahydro-isoquinolin-7-yl)-N-hydroxy-acrylamide], for which the half-maximal inhibitory concentration (IC50) on HDAC-1 is 100 to 1000 nM. The AC50 in assay [1] is over 1000 nM.

For the compound `COc1cccc(S(=O)(=O)N2CCc3ccc(/C=C/C(=O)NO)cc3C2)c1` [Example 55, (E)-N-Hydroxy-3-[2-(3-methoxy-benzenesulfonyl)-1,2,3,4-tetrahydro-isoquinolin-7-yl]-acrylamide], the IC50 on HDAC-1 was in the range of 100 to 1000 nM. Besides, the AC50 in assay [1] was over 1000 nM.

With `COc1ccc(S(=O)(=O)N2CCc3ccc(/C=C/C(=O)NO)cc3C2)cc1` [Example 56, (E)-N-Hydroxy-3-[2-(4-methoxy-benzenesulfonyl)-1,2,3,4-tetrahydro-isoquinolin-7-yl]-acrylamide], at HDAC-1, the IC50 lay in the range of 100 to 1000 nM. The compound also displayed an AC50 in assay [1] of over 1000 nM.

For `COc1ccc(C(=O)N2CCc3ccc(/C=C/C(=O)NO)cc3C2)cc1` [Example 57, (E)-N-Hydroxy-3-[2-(4-methoxy-benzoyl)-1,2,3,4-tetrahydro-isoquinolin-7-yl]-acrylamide], the IC50 on HDAC-1 is under 100 nM. Moreover, the AC50 in assay [1] is over 1000 nM.

The values above are taken from US20100022514A1, “Heterocycle Compounds and Methods of Use Thereof” (NORVARTIS AG, priority 2006, published 2010).
